Results taken from patent publication US9765035B2 (priority 2013, dated 2017).
Where two headings read alike, the source gives them in different places.

Target: human PRMT6 (Homo sapiens, UniProt Q96LA8)
Test: biochemical
Description: General Materials. S-adenosylmethionine (SAM), S-adenosylhomocysteine (SAH), bicine, Tween20, dimethylsulfoxide (DMSO), bovine skin gelatin (BSG), sodium butyrate and Tris(2-carboxyethyl)phosphine hydrochloride solution (TCEP) were purchased from Sigma-Aldrich at the highest level of purity possible. ^3H-SAM was purchase from American Radiolabeled Chemicals with a specific activity of 80 Ci/mmol. 384-well streptavidin Flashplates were purchased from PerkinElmer.
Substrates. Peptide representative of human histone H4 residues 36-50 was synthesized with an N-terminal linker-affinity tag motif and a C-terminal amide cap by 21st Century Biochemicals. The peptide was purified by high-performance liquid chromatography (HPLC) to greater than 95% purity and confirmed by liquid chromatography mass spectrometry (LC-MS). The sequence was Biot-Ahx-[…]-amide and contained a monomethylated lysine at position 44 (SEQ ID NO.:5).
Molecular Biology: Full-length human PRMT6 (NM_018137.2) transcript clone was amplified from an HEK 293 cDNA library, incorporating a flanking 5′ sequence encoding a FLAG tag ([…]) (SEQ ID NO.:6) fused directly to Ser 2 of PRMT6 and a 3′ sequence encoding a hexa His sequence (HHHHHH) (SEQ ID NO.: 17) fused directly to Asp 375. The amplified gene was subcloned into pFastBacMam (Viva Biotech).
Protein Expression. Recombinant baculovirus were generated according to Bac-to-Bac kit instructions (Life Technologies). […] Infections were carried out at 37° C. for 48 hours, harvested by centrifugation, and stored at −80° C. for purification.
Protein Purification. […] Column was washed with 20 mM imidazole in the same buffer and Flag-PRMT6-His was eluted with 150 mM imidazole. Pooled fractions were dialysed against buffer Ni-A and further purified by anti-flag M2 affinity chromatography. Flag-PRMT6-His was eluted with 200 ug/ml FLAG peptide in the same buffer. Pooled fractions were dialysed in 20 mM Tris, 150 mM NaCl, 10% glycerol and 5 mM β-mercaptoethanol, pH 7.8. The purity of recovered protein was 95%.
General Procedure for PRMT6 Enzyme Assays on Peptide Substrates. The assays were all performed in a buffer consisting of 20 mM Bicine (pH=7.6), 1 mM TCEP, 0.005% BSG, and 0.002% Tween 20, prepared on the day of use. Compounds in 100% DMSO (1 ul) were spotted into a polypropylene 384-well V-bottom plates (Greiner) using a Platemate Plus outfitted with a 384-channel head (Thermo Scientific). DMSO (1 ul) was added to Columns 11, 12, 23, 24, rows A-H for the maximum signal control and 1 ul of SAH, a known product and inhibitor of PRMT6, was added to columns 11, 12, 23, 24, rows I-P for the minimum signal control. A cocktail (40 ul) containing the PRMT6 enzyme was added by Multidrop Combi (Thermo-Fisher). The compounds were allowed to incubate with PRMT6 for 30 min at room temperature, then a cocktail (10 ul) containing SAM and peptide was added to initiate the reaction (final volume=51 ul). The final concentrations of the components were as follows: PRMT6 was 1 nM, ^3H-SAM was 200 nM, non-radiolabeled SAM was 250 nM, peptide was 75 nM, SAH in the minimum signal control wells was 1 mM, and the DMSO concentration was 2%. The assays were stopped by the addition of non-radiolabeled SAM (10 ul) to a final concentration of 400 uM, which dilutes the ^3H-SAM to a level where its incorporation into the peptide substrate is no longer detectable. 50 ul of the reaction in the 384-well polypropylene plate was then transferred to a 384-well Flashplate and the biotinylated peptides were allowed to bind to the streptavidin surface for at least 1 hour before being washed once with 0.1% Tween20 in a Biotek EL×405 plate washer. The plates were then read in a PerkinElmer TopCount plate reader to measure the quantity of ^3H-labeled peptide bound to the Flashplate surface, measured as disintegrations per minute (dpm) or alternatively, referred to as counts per minute (cpm). […]

[1] = biochemical evaluation, peptide substrate, read-out: PRMT6 IC50
[2] = single experiment or average of multiple experiments, read-out: PRMT6 biochemical evaluation (numerical)
[3] = PRMT6 biochemical evaluation (numerical), single experiment or average of multiple experiments

human PRMT6, sequence (Q96LA8 with tags, fused parts or gaps): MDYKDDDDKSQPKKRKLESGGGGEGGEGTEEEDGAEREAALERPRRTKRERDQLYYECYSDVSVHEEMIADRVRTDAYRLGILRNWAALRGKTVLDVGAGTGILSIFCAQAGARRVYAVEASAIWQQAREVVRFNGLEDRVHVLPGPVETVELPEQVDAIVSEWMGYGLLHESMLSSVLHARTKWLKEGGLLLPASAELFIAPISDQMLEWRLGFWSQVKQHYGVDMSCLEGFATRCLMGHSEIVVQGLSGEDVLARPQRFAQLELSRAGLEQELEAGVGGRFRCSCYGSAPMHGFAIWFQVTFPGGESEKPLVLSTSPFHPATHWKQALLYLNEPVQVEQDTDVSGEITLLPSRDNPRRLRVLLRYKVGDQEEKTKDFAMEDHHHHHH

SMILES | IC50 [1] | IC50 [2] | IC50 | IC50 [3]
CNCCN(C)Cc1n[nH]c2ccc(C(C)C)cc12 [Compound 42, N^1-((5-isopropyl-1H-indazol-3-yl)methyl)-N^1,N^2-dimethylethane-1,2-diamine] | < 0.1 µM | 2.34 µM |  | 
CNCCN(C)Cc1n[nH]c2ccc(N3CCC4(CCCCC4)CC3)cc12 [Compound 43, N^1-((5-(3-azaspiro[5.5]undecan-3-yl)-1H-indazol-3-yl)methyl)-N^1,N^2-dimethylethane-1,2-diamine] |  |  | < 0.1 µM | 1.8 µM
CNCCN(C)Cc1n[nH]c2ccc(C3=CCOCC3)cc12 [Compound 45] | < 0.1 µM | 0.0581 µM |  | 
CNCCN(C)Cc1n[nH]c2ccc(C3CCCCC3)cc12 [Compound 47, N^1-((5-cyclohexyl-1H-indazol-3-yl)methyl)-N^1,N^2-dimethylethane-1,2-diamine] | < 0.1 µM | 0.0743 µM |  | 
CNCCN(C)Cc1n[nH]c2ccc(C3=CCCCC3)cc12 [Compound 48] | < 0.1 µM | 0.0656 µM |  | 
CNCCN(C)Cc1n[nH]c2ccc(Oc3ccccc3C(F)(F)F)cc12 [Compound 49] | 3.01 to 10 µM | 0.0519 µM |  | 
CNCCN(C)Cc1n[nH]c2ccc(OCC3CCN(C(C)=O)CC3)cc12 [Compound 51] | 1.01 to 3 µM | > 10 µM |  | 
CNCCN(C)Cc1n[nH]c2ccc(OCC3CCCC3)cc12 [Compound 52] | 1.01 to 3 µM | 6.02 µM |  | 
CNCCN(C)Cc1n[nH]c2ccc(Oc3ccc(OC)cc3)cc12 [Compound 59] |  |  | 0.101 to 1 µM | 0.306 µM
CNCCN(C)Cc1n[nH]c2ccc(Oc3ccccc3C)cc12 [Compound 60] | 0.101 to 1 µM | 0.243 µM |  | 
CNCCN(C)Cc1n[nH]c2ccc(Oc3ccc(OC(C)C)cc3)cc12 [Compound 61] | 0.101 to 1 µM | 0.236 µM |  | 
CCOc1ccc2[nH]nc(CN(C)CCNC)c2c1 [Compound 63] | 0.101 to 1 µM | 0.164 µM |  | 
CNCCN(C)Cc1n[nH]c2ccc(OC(C)C)cc12 [Compound 64] | < 0.1 µM | 0.107 µM |  | 
CCCOc1ccc2[nH]nc(CN(C)CCNC)c2c1 [Compound 65] | < 0.1 µM | 0.105 µM |  | 
CNCCN(C)Cc1n[nH]c2ccc(Oc3cccc(OC(C)C)c3)cc12 [Compound 67] | < 0.1 µM | 0.0562 µM |  | 
CNCCN(C)Cc1n[nH]c2ccc(OCc3ccc(C(N)=O)cc3)cc12 [Compound 69] | < 0.1 µM | 0.0342 µM |  | 
CNCCN(C)Cc1n[nH]c2ccc(OCc3cccc(NC(C)=O)c3)cc12 [Compound 70] | < 0.1 µM | 0.0151 µM |  | 
CNCCN(C)Cc1n[nH]c2ccc(OCc3ccc(C(C)(C)C)cc3)cc12 [Compound 71] | < 0.1 µM | 0.0131 µM |  | 
CNCCN(C)Cc1n[nH]c2ccc(OCc3cccc(C(C)=O)c3)cc12 [Compound 73] | < 0.1 µM | 0.00949 µM |  | 

More lines, main results first:

IC50 [1] | IC50 [2] | SMILES | IC50 | IC50 [3]
1.01 to 3 µM | 0.223 µM | CNCCN(C)Cc1n[nH]c2cccc(OCCC(O)CO)c12 (stereo not shown) [Compound 40] |  | 
1.01 to 3 µM | 0.145 µM | CNCCN(C)Cc1n[nH]c2cccc(OCCCC(O)CO)c12 (stereo not shown) [Compound 41, 5-((3-((methyl(2-(methylamino)ethyl)amino)methyl)-1H-indazol-4-yl)oxy)pentane-1,2-diol] |  | 
< 0.1 µM | 0.072 µM | CNCCN(C)Cc1n[nH]c2ccc(C3CCOCC3)cc12 [Compound 44, N^1,N^2-dimethyl-N^1-((5-(tetrahydro-2H-pyran-4-yl)-1H-indazol-3-yl)methyl)ethane-1,2-diamine] |  | 
< 0.1 µM | 0.0406 µM | CNCCN(C)Cc1n[nH]c2ccc(N3CCCCC3)cc12 [Compound 46, N^1,N^2-dimethyl-N^1-((5-(piperidin-1-yl)-1H-indazol-3-yl)methyl)ethane-1,2-diamine] |  | 
3.01 to 10 µM | 0.045 µM | CNCCN(C)Cc1n[nH]c2ccc(OCC3CCOCC3)cc12 [Compound 50] |  | 
1.01 to 3 µM | 2.55 µM | CNCCN(C)Cc1c2cc(OCc3ccc(C#N)cc3)ccc2nn1C1CCOCC1 [Compound 53] |  | 
0.101 to 1 µM | 2.33 µM | CNCCN(C)Cc1n[nH]c2ccc(OCC3CCCCC3)cc12 [Compound 54] |  | 
0.101 to 1 µM | 1.02 µM | CNCCN(C)Cc1n[nH]c2ccc(Oc3ccc(C)cc3)cc12 [Compound 55] |  | 
0.101 to 1 µM | 0.774 µM | CNCCN(C)Cc1n[nH]c2ccc(Oc3ccccc3OC(C)C)cc12 [Compound 56] |  | 
0.101 to 1 µM | 0.479 µM | CNCCN(C)Cc1n[nH]c2ccc(Oc3ccc(Cl)cc3)cc12 [Compound 57] |  | 
0.101 to 1 µM | 0.447 µM | CNCCN(C)Cc1n[nH]c2ccc(OC3CCN(C(C)=O)CC3)cc12 [Compound 58, 1-(4-((3-((methyl(2-(methylamino)ethyl)amino)methyl)-1H-indazol-5-yl)oxy)piperidin-1-yl)ethan-1-one] |  | 
0.101 to 1 µM | 0.191 µM | CNCCN(C)Cc1nn(C(C)C)c2ccc(OCc3ccc(C#N)cc3)cc12 [Compound 62] |  | 
< 0.1 µM | 0.0564 µM | CNCCN(C)Cc1n[nH]c2ccc(OCc3cccc(C(N)=O)c3)cc12 [Compound 66] |  | 
< 0.1 µM | 0.0397 µM | CNCCN(C)Cc1n[nH]c2ccc(OCc3ccc(C(F)(F)F)cc3)cc12 [Compound 68] |  | 
< 0.1 µM | 0.0127 µM | CNCCN(C)Cc1n[nH]c2ccc(OCc3cccc(C(F)(F)F)c3)cc12 [Compound 72] |  | 
< 0.1 µM | 0.00909 µM | CNCCN(C)Cc1n[nH]c2ccc(OCc3cccc(C(C)(C)C)c3)cc12 [Compound 74] |  | 
